The source of these data is patent publication US10494384B2, “Urea peptoid boric acid compound, pharmaceutical composition thereof, preparation method therefor, and uses thereof” (Peking University, priority 2015, dated 2019).

The test system of data set [1] is Hela, human cervical carcinoma. As to the kind of experiment: preliminary anti-tumor screening in vitro, MTT method. The format is cell-based. The settings on record: read-out: inhibition rates (%) Hela. The method, boiled down: (§1)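 Inhibition rates measured at 0.1, 1 or 10 μM compound; cell growth read by MTT for Hela, SRB for BGC-823, MCF-7 and A549.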
On the technique in general: Formazan colour is commonly taken as a measure of viable cells.

Data set [2] has as its target T1, 20S proteasome extracted from rat liver (CT-L) (Rattus norvegicus, UniProt P18421+P28075).
T1 construct: 20S proteasome extracted from rat liver; from tissue; host or cells: rat liver
As to the kind of experiment: inhibition of 20S proteasome, CT-L activity (fluorescent peptide). It counts as biochemical. The conditions noted are these: rat liver 20S proteasome, 37° C., 1 h, read-out: inhibition rates (%) CT-L. The method, then: (§2) 1 μg of 20S proteasome extracted from rat liver was incubated with a 100 μL solution containing various concentrations of the present compounds, 50 μM fluorescent peptides and 20 mM Tris-HCl at 37° C. for 1 h, respectively. […] 0.1% DMSO was used as a solvent control. Compared with the fluorescence of solvent control, an inhibition rate or IC50 value was calculated.

Data set [3] addresses T2, 20S proteasome extracted from rat liver (T-L) (Rattus norvegicus, UniProt P40112+Q9JHW0).
T2 construct: 20S proteasome extracted from rat liver; from tissue; host or cells: rat liver
As to the kind of experiment: inhibition of 20S proteasome, T-L activity (fluorescent peptide). It counts as biochemical. The settings on record: rat liver 20S proteasome, 37° C., 1 h, read-out: inhibition rates (%) T-L. The method, then: as §2

For the next data set, the system named is BGC-823, liver cancer. As to the kind of experiment: preliminary anti-tumor screening in vitro, SRB method. It counts as cell-based. The conditions noted are these: Homo sapiens, read-out: inhibition rates (%) BGC-823. An outline of the steps: as §1
(In SRB staining, fixed cells bind dye roughly in proportion to their protein.)

For a further data set, the system named is A549, human lung cancer. Described as above. The format is cell-based. The conditions noted are these: read-out: inhibition rates (%) A549. An outline of the steps:
as §1

The subject of the next data set is MCF-7, breast cancer. The data set is described as above. The conditions noted are these: Homo sapiens, read-out: inhibition rates (%) MCF-7; for inhibition at 0.1 µM: MCF7, 0.1 μM; for inhibition at 1 µM: MCF7, 1 μM; for inhibition at 10 µM: MCF7, 10 μM. It counts as cell-based. The method, boiled down: as §1
The target of data set [4] is T3, 20S proteasome extracted from rat liver (PGPH) (Rattus norvegicus, UniProt P28073+Q9JHW0).
T3 construct: 20S proteasome extracted from rat liver; from tissue; host or cells: rat liver
As to the kind of experiment: inhibition of 20S proteasome, PGPH activity (fluorescent peptide). It counts as biochemical. The settings on record: rat liver 20S proteasome, 37° C., 1 h, read-out: inhibition rates (%) PGPH. The protocol: as §2

The test system of data set [5] is MGC803 stomach cancer cells. As to the kind of experiment: anti-tumor activity in vitro (IC50), MTT. The format is cell-based. The settings on record: Homo sapiens, MGC-803; stomach cancer cells, MTT, 72 h; read-out: IC50 (μM) MGC803. The method, then: (§3) Cancer cells were cultured in vitro. When cell growth reached logarithmic phase, the cells were collected and centrifuged at 1000 rpm for 5 min, before the supernate was removed and the cells were suspended in a moderate amount of medium, and then the concentration of cell was adjusted to 3.5×10^4/mL. The cell suspension was added into a 96-well plate with 100 μL per well and cultured in a cell incubator (37° C., 5% CO2) for 24 h. Then test drugs of different end concentrations were added, and the negative control group was added DMSO (end concentration was 0.5%), while each group afforded three repetitive holes. After cultivation for another 72 h in the cell incubator, a solution containing 5 mg/ml MTT (20 μL) was added into each well and the 96-well plate was placed at 37° C. for 3 h. To each well was added 150 μL DMSO, after oscillation in a shaking table for 5 min, the optical density (OD) values at 492 nm/620 nm were measured. IC50 values were calculated by Prism Graphpad statistical software.

The test system of another data set is HepG2 liver cancer cells. Nature of the data set: anti-tumor activity in vitro (IC50), MTT. The format is cell-based. The conditions noted are these: Homo sapiens, liver cancer cells, 72 h, read-out: IC50 (μM) HepG2. The protocol:
as §3

The structures appear in SMILES notation.

What is called inhibition is the relative decrease from the control value, in per cent. The term melting point denotes the temperature of the solid-liquid transition. As to `COc1ccc(NC(=O)[C@H](Cc2ccccc2)NC(=O)N[C@@H](CC(C)C)B2OC3C[C@H]4C[C@H](C4(C)C)[C@@]3(C)O2)cc1` (stereo partly drawn) [Example 9, N-L-leucine borate pinanediol ester-N′-(p-methoxy-phenylcarbamoyl)-L-phenylalanine-urea], the melting point was in the range of 78 to 80 °C. Besides, in data set [1], the inhibition at 0.1 µM turned out to be 11.8%, the inhibition at 1 µM was 14.3% and the inhibition at 10 µM was determined as 32.1%. Also, in [2], the inhibition at 0.2 µM is -12.2%, the inhibition at 2 µM is 44.9% and the inhibition at 20 µM worked out at 76.8%. In data set [3], the inhibition at 0.2 µM is 1.54%, the inhibition at 2 µM was determined as 9% and the inhibition at 20 µM is 21.5%. In the data set on BGC-823, liver cancer, the inhibition at 0.1 µM was found to be 8.33%, the inhibition at 1 µM came out at 7.84% and the inhibition at 10 µM was 14.7%. Further, in the data set on A549, human lung cancer, the inhibition at 0.1 µM is 4.05%, the inhibition at 1 µM came out at 10.3% and the inhibition at 10 µM was 36.2%. For the same compound, in the data set on MCF-7, breast cancer, the inhibition at 0.1 µM is 6.66%, the inhibition at 1 µM was determined as 11.7% and the inhibition at 10 µM came out at 13.8%. Besides, in [4], the inhibition at 0.2 µM stood at 1.67%, the inhibition at 2 µM was 6.26% and the inhibition at 20 µM stood at 34.1%.
`COc1ccc(OC)c(CNC(=O)N[C@@H](Cc2ccccc2)C(=O)N[C@@H](CC(C)C)B2OC3CC4CC(C4(C)C)[C@]3(C)O2)c1` (stereo partly drawn) [Example 19, N-L-phenylalanyl-L-leucine borate pinanediol ester-N′-(2,5-dimethoxy-benzylamine)-urea]: the melting point lay in the range of 88 to 90 °C. In addition, in data set [1], the inhibition at 0.1 µM is 39.8%, the inhibition at 1 µM worked out at 44% and the inhibition at 10 µM came out at 55%. Also, in [2], the inhibition at 0.2 µM is 91.7%, the inhibition at 2 µM amounted to 97.3% and the inhibition at 20 µM was 98.3%. In [3], the inhibition at 0.2 µM worked out at 18.2%, the inhibition at 2 µM stood at 69.1% and the inhibition at 20 µM turned out to be 90.7%. In addition, in the data set on BGC-823, liver cancer, the inhibition at 0.1 µM is 43.7%, the inhibition at 1 µM amounted to 46.6% and the inhibition at 10 µM was 57.2%. For the same compound, in the data set with A549, human lung cancer, the inhibition at 0.1 µM stood at 53.1%, the inhibition at 1 µM amounted to 65.6% and the inhibition at 10 µM is 76.1%. In addition, in the data set on MCF-7, breast cancer, the inhibition at 0.1 µM turned out to be 23.4%, the inhibition at 1 µM amounted to 38.1% and the inhibition at 10 µM amounted to 61.7%. Further, in [4], the inhibition at 0.2 µM worked out at 16.9%, the inhibition at 2 µM is 82.3% and the inhibition at 20 µM stood at 97.2%.
For orientation: IC50 means the point on the concentration scale where inhibition reaches its midpoint. Consider `COc1ccc(CNC(=O)N[C@@H](Cc2ccccc2)C(=O)N[C@@H](CC(C)C)B(O)O)cc1` [Example 15, N-L-phenylalanyl-L-leucine borate-N′-(p-methoxy-benzylamine)-urea], for which the half-inhibitory concentration (IC50) in [5] came out at 0.036 µM; in the data set with HepG2 liver cancer cells, 0.25 µM. Also, the inhibition at 0.1 µM is 39.3% in [1]; 7.38% in the data set with BGC-823, liver cancer; 2.63% in the data set on A549, human lung cancer; 47.7% with MCF-7, breast cancer. In addition, the inhibition at 1 µM stood at 44.5% in data set [1]; 32.6% with BGC-823, liver cancer; 11% in the data set on A549, human lung cancer; 65% in the data set with MCF-7, breast cancer. The inhibition at 10 µM in data set [1] amounted to 51.8%; with BGC-823, liver cancer, 38.4%; in the data set with A549, human lung cancer, 31.1%; in the data set on MCF-7, breast cancer it was 73.8%. For the same compound, the inhibition at 0.2 µM stood at 86.3% in data set [2], 5.72% in data set [3] and 8.45% in data set [4]. The inhibition at 2 µM in data set [2] came out at 95.9%; in data set [3] it was 53.5%; in data set [4], 89.4%. Further, the values for the inhibition at 20 µM in data set [2], in data set [3] and in data set [4] were 98.3%, 90.4% and 96.8%, respectively.
